Values of other authors as cited in US20090054377A1, “COMPOSITIONS AND METHODS FOR SMOKING CESSATION” (MODUS BIOLOGICAL MEMBRANES LTD., priority 2004, published 2009).
Where two headings read alike, the source gives them in different places.

Legend:
[1] = test system: smokers; details: in vivo
[2] = test system: smokers
[3] = other smoking cessation remedies

CC(NC(C)(C)C)C(=O)c1cccc(Cl)c1 (stereo not shown) [Bupropion (Zyban), Bupropion]
Adverse Events: Anxiety [1]: 8%
Adverse Events: Constipation [1]: 8%
Adverse Events: Diarrhea [1]: 4%
Adverse Events: Dizziness [1]: 8-10%
Adverse Events: Dream abnormality [1]: 5%
Adverse Events: Dry Mouth [1]: 1-11%
Adverse Events: Insomnia [1]: 31-40%
Adverse Events: Rhinitis [1]: 12%
Adverse Events: Seizures [1]: 0.4%
% Quitters ([2]; 300 mg/day): 25%
Absolute quit rate (quit rate − quit rate of placebo) ([2]; 300 mg/day): 11
% Quitters [2, 3]: 22.5%
Absolute quit rate (quit rate − quit rate of placebo) [2, 3]: 13.5
